The values that follow are results of earlier work, collected in US11925179B2, “Glyphosate formulations containing amidoalkylamine surfactants” (Monsanto Technology LLC, priority 2008, dated 2024).

The conditions of the series: glyphosate in its acid form, 25° C.

In the case of `O=C(O)CNCP(=O)(O)O` [glyphosate, N-phosphonomethylglycine], the solubility in water is listed as 1.16 % by weight.
